Measurements taken from US20230348506A1, “MACROCYCLIC PANTETHEINE DERIVATIVES AND USES THEREOF” (VectivBio Comet AG, priority 2019, published 2023).

What was measured:
Format in all cases: cell-based, human
[1] = system: Methylmalonic Acidemia (MMA) Primary fibroblasts (Tsi 5224 Trans-Hit Bio, 21498 Telethon Network of Genetic Biobanks); assay: Measurement of ATP (ATPlite assay); details: 10 μM compound for 2 hours
Method: Primary adherent fibroblasts were cultured in minimum essential medium (MEM) (Gibco, 25030081) supplemented with 2 mM L-Glutamine (Gibco, 25030081), 15% fetal bovine serum (FBS) (Gibco, 26400044) and 1% penicillin/streptomycin (Gibco, 5140122) at 37° C. and 5% CO2. Cells were collected for either passaging or experiment at ˜70-80% confluence. Cells were obtained by trypsinization and seeded in cell culture microplates either white plate (Thermo Fisher Scientific, 152028) for luminescent measurement or black plate (Thermo Fisher Scientific, 165305) for fluorescent based read out for different assays listed below. Cells were obtained by trypsinization and […] were seeded and allowed to adhere for 16-18 hours to have confluency around 70-80% in the cell well with culture media. After 24 hours prior to measurements (37° C., 5% CO2) media was changed to Dulbecco's Modified Eagle Medium (DMEM, Agilent Seahorse cat #103575-100) with the appropriate supplements (1 mM glucose, 2 mM L-glutamine, 1 mM pyruvate, 10% FBS).
Assay was performed according to manufacturer instructions (ATPlite Assay Perkin Elmer, 6016941). 50 μl of cell lysis buffer was added to each well with cells in 100 μl of media and incubated for 5 mins at RT in an orbital shaker at 700 rpm to lyse the cells and stabilize the ATP. […]

[2] = system: CD14+ monocytes differentiated to M1 macrophages; assay: M1 differentiation assay (IL6 by ELISA); details: 10 μM compound
Method: Monocytes were isolated by positive isolation with CD14+ microbeads (Miltenyi, 130-050-201). Monocytes were 99% viable and were 96% purity as analyzed by FACS and CD14+ (BD, 563561). 100,000 monocytes along with compounds at the dose of 10 and 50 μM were allowed to differentiate to macrophages with 10 ng/ml GMCSF (R&D, 15-GM-050/CF) in RPMI complete media (Invitrogen, 22400089) with 15% FBS (Hyclone SV30087.03) and 1% Penicillin-Streptomycin (Gibco, 15140-122). On day 2 and 4 half the media was refreshed with fresh GM-CSF and compounds at 10 and 50 μM dose. On day 6 the macrophages were matured with GMCSF, IFNγ (R&D 285-IF-100/CF) and LPS (Sigma, L6143) in the presence of 10 μM and 50 μM of compounds. After 24 h, supernatant was collected for the measurement of TNFα (DKW, 1117202) IL6 (DKW, 1110602), IL10 (DKW, 1110003) by ELISA. Macrophages were detached gently on ice with EDTA (Invitrogen, 15575-038) and analyzed by FACS (BD LSR Fortessa, 853492). […]

[3] = system: MMA Patient fibroblasts (GM01673, Coriell Institute for Medical Research); assay: Mitochondrial fusion and networking (high-content imaging); design: key: Mitochondrial elongation and networking was described as slight, mild or good; Mitochondrial elongation and networking was described as slight, mild or good; Mitochondrial elongation and networking was described as slight, mild or good; details: 10 μM compound, 2 hours, compared to vehicle control
Method: (§1) Cells were seeded in 96-well plates (density 3000 cells/well) in culture minimum MEM (GIBCO, 10370-021) supplemented with 2 mM L-Glutamine (Thermo Fisher Scientific), 15% FBS (Thermo Fisher Scientific 26400044) and 1% penicillin/streptomycin. Cells were incubated for 48 hours (37° C, 5% CO2), then treated with 10 μM compounds from the present disclosure, 1% DMSO (vehicle) or 5 μM FCCP (control) for 2 hours in fasted conditional medium: Agilent XF DMEM (Agilent 103575-100), pH 7.4 supplemented with 10% FBS (Thermo Fisher Scientific 26400044), 0.03% penicillin/streptomycin 1 mM glucose, 2 mM L-glutamine and 1 mM pyruvate.
(§2) After treatment, media was removed, and cells were stained with 100 μl of 1×mixture dye solution of 1 μg/mL JC-1 (Invitrogen Cat #T3168) and 50 ng/ml MitoTracker deep red (Invitrogen Cat #M22426) at 37° C. for 30 minutes. Next, staining was removed, the cells were washed once with 150 μl PBS, and 150 μl of fasted conditional medium (described above) is added to each well. Analysis was carried out on live cells using a Thermo Scientific CellInsight CX7 LZR High-Content Screening Platform. Mitochondrial elongation and networking was described as slight, mild or good.

[4] = system: PA Patient fibroblasts (Tsi 3618 Trans-Hit Bio); assay: as above; design: key: Mitochondrial elongation and networking was described as slight, mild or good; Mitochondrial elongation and networking was described as slight, mild or good; Mitochondrial elongation and networking was described as slight, mild or good; details: 10 μM compound, 2 hours, compared to vehicle control
Method: as §1, §2

CC1(C)COC(=O)CCC(=O)SCCNC(=O)CCNC(=O)[C@@H]1O [Compound 206, (R)-15-hydroxy-16,16-dimethyl-1-oxa-6-thia-9,13-diazacycloheptadecane-2,5,10,14-tetraone]
increase of ATP levels [1]: at least 5%
decrease of levels of IL-6 protein [2]: at least 40%
mitochondrial elongation and networking [3]: good
mitochondrial elongation and networking [4]: mild
